Assay results as given in publication PMC10709440, “High-throughput ligand profile characterization in novel cell lines expressing seven heterologous insect olfactory receptors for the detection of volatile plant biomarkers” (Scientific Reports, 2023).
Where “and” joins values, the source holds several entries; their conditions need not be identical. Equal entries are not always repeated.

Tests used:
ORCO = target: T1, ORCO (Drosophila melanogaster, UniProt Q9VNB5); assay: Origin of Ca2+ test, (GCaMP6-GSG)ORCO cell line; assay type: cell-based; details: assay buffer lacking Ca2+, and lacking Ca2+ and containing EGTA
T1 sequence (Q9VNB5 1-486): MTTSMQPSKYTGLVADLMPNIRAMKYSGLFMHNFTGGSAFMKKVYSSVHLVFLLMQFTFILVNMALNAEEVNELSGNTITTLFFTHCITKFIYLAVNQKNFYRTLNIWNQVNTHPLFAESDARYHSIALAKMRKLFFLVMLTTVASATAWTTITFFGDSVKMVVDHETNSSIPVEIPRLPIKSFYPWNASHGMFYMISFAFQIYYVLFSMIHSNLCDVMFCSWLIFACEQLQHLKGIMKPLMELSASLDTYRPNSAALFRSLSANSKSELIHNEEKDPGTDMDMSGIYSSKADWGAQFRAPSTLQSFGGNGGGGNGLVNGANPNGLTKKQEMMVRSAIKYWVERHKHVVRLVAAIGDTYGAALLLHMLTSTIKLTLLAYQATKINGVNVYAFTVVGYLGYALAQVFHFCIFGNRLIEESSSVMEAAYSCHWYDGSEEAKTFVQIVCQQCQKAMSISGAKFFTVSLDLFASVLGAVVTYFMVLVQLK
Text: We tested for the origin of the Ca^2+ ions on two cell lines, OR47a and (GCaMP6-GSG)ORCO, with assay buffer lacking Ca^2+ and assay buffer lacking Ca^2+ and containing EGTA.

Drosophila OR10a = target: T2, Drosophila OR10a (Drosophila melanogaster, UniProt Q9VYZ1); assay: Calcium ion fluorescence (GCaMP6) assay, OR10a stable HEK293 cell line; assay type: cell-based; details: 50 µM, OR10a clone G5, single plate 2019.12.05
T2 construct: expressed in transfected cells
T2 sequence (Q9VYZ1 1-406): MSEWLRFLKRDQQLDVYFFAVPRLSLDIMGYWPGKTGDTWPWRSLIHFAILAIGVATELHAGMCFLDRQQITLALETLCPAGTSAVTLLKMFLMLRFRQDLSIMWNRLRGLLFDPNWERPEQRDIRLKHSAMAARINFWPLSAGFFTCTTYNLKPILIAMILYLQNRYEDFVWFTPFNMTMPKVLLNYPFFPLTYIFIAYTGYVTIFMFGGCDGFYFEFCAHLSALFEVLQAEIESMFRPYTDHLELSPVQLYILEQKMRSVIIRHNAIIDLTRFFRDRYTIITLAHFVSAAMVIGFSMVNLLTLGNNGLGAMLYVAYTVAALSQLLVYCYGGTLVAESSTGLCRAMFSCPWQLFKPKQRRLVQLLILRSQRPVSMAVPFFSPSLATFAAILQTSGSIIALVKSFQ
T2 sequence (Q9VNB5 1-486 partner): T1 sequence (Q9VNB5 1-486)
Description: (§1) These VUAA1 normalized ∆F values were used to compare the different receptors and ligands.
(§2) The concentration-dependent effect of the reference ligands on their cognate cell lines was examined in more detail. Twelve different ligand concentrations were measured on each cell line in an overall 0.01 μM to 100 μM concentration range with 5 repetitions with three technical replicates each time.
(§3) Twelve thousand to 18,000 cells were plated into each well of a black wall, transparent bottom 384-well microplate (Greiner) 48 h or 72 h before the measurements and were simultaneously treated with 1 μg/mL doxycycline. […] The plate has 24 columns, thus we could record responses in up to eight different cell lines in each plate. On the day of the experiment, the growth medium was replaced with 20 µL assay buffer/well (140 mM NaCl, 5 mM KCl, 2 mM CaCl2, 1 mM MgCl2, 5 mM HEPES-Na, 20 mM glucose, pH 7.3, 340 mOsm). […] Baseline fluorescence (F0) was recorded for 5 s, after which 7 µL VOC buffer (140 mM NaCl, 5 mM KCl, 2 mM CaCl2, 1 mM MgCl2, 5 mM HEPES-Na, 31 mM glucose, 0.1% DMSO, pH 7.3, 340 mOsm) was injected into each well in one row and the fluorescence response was recorded for an additional 30 s, at a rate of one read/sec. VOC solutions (VOC buffer with 4× concentration of the final measured VOC concentration, 9 µL/well was injected) were measured on the same wells in a second round with the same protocol. Each individual concentration of a specific VOC sample was recorded in three wells for the same cell line on the same microplate. The raw data were exported in xls file format, F0 and FMAX values, and the fluorescence intensity changes (∆F) were calculated in Excel (Microsoft) (Supplementary file Data summary.xlsx) using the following equation: ΔF=FMAX-F0/F0 (see also Fig. 1C). On each plate, we recorded the response of each cell line to 50 µM VUAA1. The average of these ∆F values of each cell line were used to calculate the VUAA1-normalized values for the rest of the plate, by dividing VOC response ∆F values by the average VUAA1 response ∆F value of the corresponding OR cell line. Each VOC-OR combination was measured three times as technical replicates. […] The average of these replicates were used as one ∆F and VUAA1-normalized ∆F in the following analysis.
(§4) In the next rows we tested the reference VOCs (or other VOCs known to activate the corresponding cell lines), in order to test if all cell lines are responsive. The remaining rows were used to test VOCs with unknown effect.
(§5) The recorded FMAX, F0, ∆F, VUAA1-normalized ∆F values, as well as the OR name, the name of the tested sample, and the final concentration for each well were copied into supplementary file Data summary.xlsx, that was used to summarize all the plates recorded. Here, the averages of the measurements were calculated for each receptor-VOC-concentration combination.

Drosophila OR47a = target: T3, Drosophila OR47a (Drosophila melanogaster, UniProt P81921); assay: Calcium ion fluorescence (GCaMP6) assay, OR47a stable HEK293 cell line; assay type: cell-based; details: OR47a cell line; assay buffer lacking Ca2+, and lacking Ca2+ and containing EGTA
T3 construct: expressed in transfected cells
T3 sequence (P81921 1-385): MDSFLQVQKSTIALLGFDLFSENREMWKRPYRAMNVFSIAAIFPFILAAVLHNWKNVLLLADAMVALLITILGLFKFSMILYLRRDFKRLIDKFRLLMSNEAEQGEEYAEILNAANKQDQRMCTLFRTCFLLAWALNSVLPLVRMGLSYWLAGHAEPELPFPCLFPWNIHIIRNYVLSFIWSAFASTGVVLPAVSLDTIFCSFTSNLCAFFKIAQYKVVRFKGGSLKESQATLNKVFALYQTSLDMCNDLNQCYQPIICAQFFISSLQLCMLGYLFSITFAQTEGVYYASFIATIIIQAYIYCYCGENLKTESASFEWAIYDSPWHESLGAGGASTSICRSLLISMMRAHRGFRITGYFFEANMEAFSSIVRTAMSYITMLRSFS
T3 sequence (Q9VNB5 1-486 partner): T1 sequence (Q9VNB5 1-486)
Description: as §1, §2, §3, §4, §5

[1] = system: T4, OR cell lines (OR + ORCO); assay: Maximum fluorescence change of the OR cell lines, long term stability testing / VUAA1 check; assay type: cell-based, Drosophila melanogaster
T4 construct: expressed in transfected cells
Description: as §1
Twelve thousand to 18,000 cells were plated into each well of a black wall, transparent bottom 384-well microplate (Greiner) 48 h or 72 h before the measurements and were simultaneously treated with 1 μg/mL doxycycline. […] The plate has 24 columns, thus we could record responses in up to eight different cell lines in each plate. On the day of the experiment, the growth medium was replaced with 20 µL assay buffer/well (140 mM NaCl, 5 mM KCl, 2 mM CaCl2, 1 mM MgCl2, 5 mM HEPES-Na, 20 mM glucose, pH 7.3, 340 mOsm). […] Baseline fluorescence (F0) was recorded for 5 s, after which 7 µL VOC buffer (140 mM NaCl, 5 mM KCl, 2 mM CaCl2, 1 mM MgCl2, 5 mM HEPES-Na, 31 mM glucose, 0.1% DMSO, pH 7.3, 340 mOsm) was injected into each well in one row and the fluorescence response was recorded for an additional 30 s, at a rate of one read/sec. VOC solutions (VOC buffer with 4× concentration of the final measured VOC concentration, 9 µL/well was injected) were measured on the same wells in a second round with the same protocol. Each individual concentration of a specific VOC sample was recorded in three wells for the same cell line on the same microplate. […] On each plate, we recorded the response of each cell line to 50 µM VUAA1. […] Each VOC-OR combination was measured three times as technical replicates. […]

OR49b [2] = system: OR49b; set-up: method as in PMID 23329732; details: OR49b in Xenopus oocytes; read-out: calculated EC50; cited from earlier work
OR49b [3] = details: 80 μM; OR49b transiently in HEK293T cells; cited from earlier work
Drosophila OR49b = target: T5, Drosophila OR49b (Drosophila melanogaster, UniProt Q9V6H2); assay: cell-based
T5 construct: expressed in transfected cells
T5 sequence (Q9V6H2 1-375): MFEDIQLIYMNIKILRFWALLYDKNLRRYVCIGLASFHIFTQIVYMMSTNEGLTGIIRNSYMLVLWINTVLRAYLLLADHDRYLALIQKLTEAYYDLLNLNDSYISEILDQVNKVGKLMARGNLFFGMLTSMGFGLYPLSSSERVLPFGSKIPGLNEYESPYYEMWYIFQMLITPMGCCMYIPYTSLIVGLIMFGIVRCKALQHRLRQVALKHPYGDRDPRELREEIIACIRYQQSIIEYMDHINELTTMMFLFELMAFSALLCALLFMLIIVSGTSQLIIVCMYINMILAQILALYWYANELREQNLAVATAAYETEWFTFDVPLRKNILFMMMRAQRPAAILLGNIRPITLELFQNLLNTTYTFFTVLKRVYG
T5 sequence (Q9VNB5 1-486 partner): T1 sequence (Q9VNB5 1-486)
Description: as §1, §2, §3, §4, §5

[4] = OR49b, average of 5 biological replicates
[5] = OR49b, fit of each biological replicate
[6] = OR49b, fit of the averaged curve

## CCc1ccc(NC(=O)CSc2nnc(-c3cccnc3)n2CC)cc1 [VUAA1, reference compound]
ORCO
  response in assay buffer lacking Ca2+: Neither of the cell lines responded
Drosophila OR10a
  DF norm, all technical replicates: 1
  DF norm, outlier technical replicates removed: 1
  DF, outlier technical replicates removed: 1.743
Drosophila OR10a; xc+0.1%DMSO
  DF, all technical replicates: 1.743
Drosophila OR47a
  response in assay buffer lacking Ca2+: Neither of the cell lines responded
[1]; ORCO agonist VUAA1, highest over OR cell lines
  peaks of fluorescence intensity change: ≤ 462%
[1]; all cell lines, including the four non-responding OR lines
  response of the cell lines to VUAA1: responded

## Cc1ccccc1O [2-methylphenol]
OR49b [2]
  EC50: 239 ± 76 µM
OR49b [3]
  response: 38.5%
Drosophila OR49b; EC50 (fitted parameter), OR49b, fit of each biological replicate
  EC50: 3.35 µM and 16.1 µM and 14.8 µM and 21 µM and 31.6 µM
Drosophila OR49b; EC50, AVERAGE, OR49b, arithmetic average of 5 replicate EC50
  EC50: 17.4 µM
Drosophila OR49b; EC50, FITTED AVERAGE CURVE, OR49b, fit of the averaged curve
  EC50: 24.4 µM
Drosophila OR49b; EC50, OR49b cell line, fitted Hill equation, Hill coefficient constrained to 1, maximal response max 1
  EC50: 13.9 µM
Drosophila OR49b; LOG EC50 (fitted parameter), OR49b, fit of each biological replicate, log of EC50, unit inferred
  EC50: 3.35 µM and 16.1 µM and 14.8 µM and 21 µM and 31.6 µM
Drosophila OR49b; LOG EC50, AVERAGE, OR49b, average of 5 biological replicates
  EC50: 14 µM
Drosophila OR49b; OR49b, VOC concentration 0.075
  response, AVERAGE: 0
  response, biological replicates: 0
Drosophila OR49b; OR49b, VOC concentration 0.15
  response, AVERAGE: 0
  response, biological replicates: 0
Drosophila OR49b; OR49b, VOC concentration 0.3
  response, AVERAGE: 0.0628
  response, biological replicates: 0 (2×) and 0.1244 and 0.09727 and 0.09231
Drosophila OR49b; OR49b, VOC concentration 0.6
  response, AVERAGE: 0.04614
  response, biological replicates: 0 (3×) and 0.1263 and 0.1043
Drosophila OR49b; OR49b, VOC concentration 1.25
  response, AVERAGE: 0.07731
  response, biological replicates: 0 (2×) and 0.1346 and 0.1269 and 0.1251
Drosophila OR49b; OR49b, VOC concentration 2.5
  response, AVERAGE: 0.06463
  response, biological replicates: 0.1405 and 0 (2×) and 0.06363 and 0.119
Drosophila OR49b; OR49b, VOC concentration 5
  response, AVERAGE: 0.1447
  response, biological replicates: 0.2459 and 0.1808 and 0.1356 and 0.1611 and 0
Drosophila OR49b; OR49b, VOC concentration 10
  response, AVERAGE: 0.2704
  response, biological replicates: 0.4119 and 0.3158 and 0.288 and 0.1952 and 0.1409
Drosophila OR49b; OR49b, VOC concentration 20
  response, AVERAGE: 0.5849
  response, biological replicates: 0.5662 and 0.6184 and 0.7088 and 0.601 and 0.43
Drosophila OR49b; OR49b, VOC concentration 40
  response, AVERAGE: 0.6048
  response, biological replicates: 0.5892 and 0.7837 and 0.6143 and 0.432
Drosophila OR49b; OR49b, VOC concentration 60
  response, AVERAGE: 0.7233
  response, biological replicates: 0.8924 and 0.8145 and 0.74 and 0.4464
Drosophila OR49b; OR49b, VOC concentration 80
  response, AVERAGE: 0.613
  response, biological replicates: 0 and 0.9414 and 0.8681 and 0.8023 and 0.453
Drosophila OR49b; OR49b, VOC concentration 100
  response, AVERAGE: 0.818
  response, biological replicates: 0.8641 and 0.8887 and 0.8515 and 0.6679
Drosophila OR49b; [4]
  AVERAGE MAX: 0.8353
  n, AVERAGE: 1
Drosophila OR49b; [5]
  MAX (fitted parameter): 0.4157 and 1 (3×) and 0.7607
  n (fitted parameter): 1
Drosophila OR49b; [6]
  MAX, fitted average curve: 1
  n, FITTED AVERAGE CURVE: 0.855
